PubChem BioAssay AID1963865 (Molecular Pharmacology Branch, DTP, NCI, 2024)

System: KRAS PDC multicell spheroid viability
Assay: Anticancer human tumor 825966-067-R-J1-PDC patient-derived colon carcinoma cell line growth inhibition [KRAS2]
Conditions: for IC50: curve of first compound; for viability, T/C: stronger effect = lower value
Source text: Multicellular complex tumor spheroid response to RAS pathway inhibitors in combination with a targeted agents in patient-derived cell lines with oncogenic KRAS variants from multiple cancer types
A high-throughput screen of multi-cell type tumor spheroids was designed to identify active combinations of targeted small molecules and KRAS pathway inhibitors. Complex spheroids include a stromal component modeled by human endothelial cells (HUVEC) and fibroblasts modeled by human mesenchymal stem cells (MSCs). The concentration ranges selected for each drug and investigational agent were based upon clinically achievable concentrations if the clinical Cmax of the agent was known.
Compounds. The drugs and investigational agents: BI-3406 (NSC825286), BAY-293 (NSC824723), batoprotafib (TNO155; NSC825523), sotorasib (AMG 510; NSC818433), MRTX1257 (NSC819558), elimusertib (BAY 1895344; NSC800525), molibresib (GSK525762; NSC774829), temuterkib (LY3214996; NSC803410), venetoclax (NSC766270), alisertib (NSC759677), olaparib (NSC753686), talazoparib (NSC767125), erdafitinib (NSC781556), ipatasertib (NSC767898), cabozantinib (NSC761068), nintedanib (NSC756659), abemaciclib (NSC768073), docetaxel (NSC628503), trametinib (NSC758246), and sapanisertib (NSC764658) were obtained from the National Cancer Institute (NCI) Developmental Therapeutics Program Chemical Repository. The FDA-approved anticancer drug set is available from the Developmental Therapeutics Program. […] The stock solutions were prepared in dimethyl sulfoxide (DMSO, Sigma-Aldrich, St. Louis, MO, cat. D2650) at 800-fold the tested concentration and stored at -70 degrees C prior to their use. All drugs and investigational agents were tested over a range starting from a high concentration at or near the clinical Cmax and decreasing in half-log increments. If the clinical Cmax for an agent had not been determined, the highest concentration tested was 10 microM.
Cell Culture. All cells were maintained in an incubator at 37 degrees C and 5% CO2 with 95% humidity. The PDC lines were cultured according to standard operating procedures established by the NCI PDMR (https://pdmr.cancer.gov/sops/default.htm). Briefly, all PDCs were thawed and cultured in Matrigel-coated flasks prepared with a working solution of 1X Ham's F-12 nutrient mix, without supplementation (Invitrogen, Waltham, MA, cat. 11765054), 100 U/mL penicillin-streptomycin (Invitrogen, cat. 15140122), and 2.5% Matrigel (Corning Inc., Corning, NY, cat. 354248) for the first three passages. All PDCs were cultured in complete DMEM/F-12 media containing advanced DMEM/F-12 (Invitrogen, cat. 12634028), 4.9% defined fetal bovine serum, heat inactivated (HyClone Laboratories Inc., Logan, UT, cat. SH30070.03HI), 389 ng/mL hydrocortisone (Sigma-Aldrich, cat. H4001), 9.7 ng/mL human EGF recombinant protein (Invitrogen, cat. PHG0313), 23.4 microg/mL adenine (Sigma-Aldrich, cat. A2786), 97.3 U/mL penicillin-streptomycin (Invitrogen, cat. 15140122), 1.9 mM L-glutamine (Invitrogen, cat. 25030081), and 9.7 microM Y-27632 dihydrochloride (Tocris Bioscience, Bristol, United Kingdom, cat. 1254). The PDCs were cultured in complete DMEM/F12 media without 9.7 microM Y-27632 dihydrochloride for at least two passages prior to the screen. The established cell line HOP-62 was cultured in RPMI 1640 medium, HEPES (Invitrogen, cat. 22400105) with 10% defined fetal bovine serum (HyClone Laboratories Inc., cat. SH30070.03) and 2 mM L-glutamine (Invitrogen, cat. 25030081). The pooled donor HUVEC were cultured in endothelial cell growth medium 2 (PromoCell, Heidelberg, Germany, cat. C-22011) and the hMSC were cultured in mesenchymal stem cell growth medium 2 (PromoCell, cat. C-28009). For all experiments, HUVEC and hMSC were used at passages </=5, while the malignant cell lines were used at passages </=15. […]

[1] = second compound 0.0316 µM, first compound 0.01 µM
[2] = second compound 0.0316 µM, first compound 0.0316 µM
[3] = second compound 0.0316 µM, first compound 0.1 µM
[4] = second compound 0.1 µM, first compound 0.01 µM
[5] = second compound 0.1 µM, first compound 0.0316 µM
[6] = second compound 0.1 µM, first compound 0.1 µM
[7] = second compound 0.316 µM, first compound 0.01 µM
[8] = second compound 0.316 µM, first compound 0.0316 µM
[9] = second compound 0.316 µM, first compound 0.1 µM
[10] = second compound 1 µM, first compound 0.01 µM
[11] = second compound 1 µM, first compound 0.0316 µM
[12] = second compound 1 µM, first compound 0.1 µM
[13] = second compound 3.16 µM, first compound 0.01 µM
[14] = second compound 3.16 µM, first compound 0.0316 µM
[15] = second compound 3.16 µM, first compound 0.1 µM
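Further: spheroids exposed to compounds for 7 days.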
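Wherever viability, T/C is given: 100% = DMSO vehicle control viability.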

CC(=O)OC12COC1CC(O)C1(C)C(=O)C(O)C3=C(C)C(OC(=O)C(O)C(NC(=O)OC(C)(C)C)c4ccccc4)CC(O)(C(OC(=O)c4ccccc4)C21)C3(C)C (stereo not given) + C=CC(=O)N1CCN(c2nc(OCC3CCCN3C)nc3c2CCN(c2cccc4cccc(C)c24)C3)CC1CC#N
IC50 (second compound 0.0316 µM): < 10 nM | IC50 (second compound 0.1 µM): < 10 nM | IC50 (second compound 0.316 µM): < 10 nM | IC50 (second compound 1 µM): < 10 nM | IC50 (second compound 3.16 µM): < 10 nM | viability, T/C [1]: 24.8% | viability, T/C [2]: 28% | viability, T/C [3]: 23.1% | viability, T/C (second compound 0.0316 µM, first compound 0.316 µM): 23.1% | viability, T/C (second compound 0.0316 µM, first compound 1 µM): 24.5% | viability, T/C (second compound 0.0316 µM, first compound 3.16 µM): 40.3% | viability, T/C [4]: 27% | viability, T/C [5]: 29.6% | viability, T/C [6]: 32.1% | viability, T/C (second compound 0.1 µM, first compound 0.316 µM): 22% | viability, T/C (second compound 0.1 µM, first compound 1 µM): 28.6% | viability, T/C (second compound 0.1 µM, first compound 3.16 µM): 35.9% | viability, T/C [7]: 23% | viability, T/C [8]: 21.2% | viability, T/C [9]: 25.4% | viability, T/C (second compound 0.316 µM, first compound 0.316 µM): 24.5% | viability, T/C (second compound 0.316 µM, first compound 1 µM): 26.2% | viability, T/C (second compound 0.316 µM, first compound 3.16 µM): 27.3% | viability, T/C [10]: 28.6% | viability, T/C [11]: 25% | viability, T/C [12]: 30% | viability, T/C (second compound 1 µM, first compound 0.316 µM): 20% | viability, T/C (second compound 1 µM, first compound 1 µM): 27% | viability, T/C (second compound 1 µM, first compound 3.16 µM): 26.1% | viability, T/C [13]: 31.7% | viability, T/C [14]: 23.2% | viability, T/C [15]: 21.2% | viability, T/C (second compound 3.16 µM, first compound 0.316 µM): 23.8% | viability, T/C (second compound 3.16 µM, first compound 1 µM): 17.2% | viability, T/C (second compound 3.16 µM, first compound 3.16 µM): 29.6%

CN(C)C/C=C/C(=O)Nc1cc2c(Nc3ccc(F)c(Cl)c3)ncnc2cc1O[C@H]1CCOC1 + C=CC(=O)N1CCN(c2nc(OCC3CCCN3C)nc3c2CCN(c2cccc4cccc(C)c24)C3)CC1CC#N
IC50 (second compound 0.0316 µM): > 100 nM | IC50 (second compound 0.1 µM): > 100 nM | IC50 (second compound 0.316 µM): > 100 nM | IC50 (second compound 1 µM): > 100 nM | IC50 (second compound 3.16 µM): > 100 nM | viability, T/C (second compound 0.0316 µM, first compound 0.000316 µM): 92% | viability, T/C (second compound 0.0316 µM, first compound 0.001 µM): 105% | viability, T/C (second compound 0.0316 µM, first compound 0.00316 µM): 86% | viability, T/C [1]: 83.4% | viability, T/C [2]: 94.5% | viability, T/C [3]: 99.7% | viability, T/C (second compound 0.1 µM, first compound 0.000316 µM): 114% | viability, T/C (second compound 0.1 µM, first compound 0.001 µM): 107% | viability, T/C (second compound 0.1 µM, first compound 0.00316 µM): 100% | viability, T/C [4]: 94.3% | viability, T/C [5]: 86.8% | viability, T/C [6]: 88% | viability, T/C (second compound 0.316 µM, first compound 0.000316 µM): 100% | viability, T/C (second compound 0.316 µM, first compound 0.001 µM): 107% | viability, T/C (second compound 0.316 µM, first compound 0.00316 µM): 74.8% | viability, T/C [7]: 83.8% | viability, T/C [8]: 77% | viability, T/C [9]: 81.4% | viability, T/C (second compound 1 µM, first compound 0.000316 µM): 94.7% | viability, T/C (second compound 1 µM, first compound 0.001 µM): 84.9% | viability, T/C (second compound 1 µM, first compound 0.00316 µM): 89.3% | viability, T/C [10]: 98.7% | viability, T/C [11]: 107% | viability, T/C [12]: 77.5% | viability, T/C (second compound 3.16 µM, first compound 0.000316 µM): 111% | viability, T/C (second compound 3.16 µM, first compound 0.001 µM): 83.6% | viability, T/C (second compound 3.16 µM, first compound 0.00316 µM): 87.5% | viability, T/C [13]: 100% | viability, T/C [14]: 67.7% | viability, T/C [15]: 114%
